Assay results from US20060020014A1, “Method for treating nervous system disorders and conditions” (Wyeth, priority 2004, published 2006).
“And” between values parts separate entries of the source, which are not always exact repeats. Equal values may be shown once.

Key:
[1] = tested on: SNL rats, tactile allodynia; assay: Spinal nerve ligation (SNL) model of neuropathic pain, tactile hypersensitivity (von Frey); assay type: in vivo, rat; conditions: 30 mg/kg IP, 30-300 minutes after administration
Description: Subjects. Male Sprague-Dawley rats (Indianapolis, Ind.) weighing 150 to 200 g at time of arrival, were individually housed in wire cages in a climate-controlled room. A 12-hour light/dark cycle (lights on at 0630) was in effect, and food and water were available ad libitum.
Surgery—Spinal Nerve Ligation. Rats were anesthetized with 3.5% halothane in O2 at 1 L/min and maintained with 1.5% halothane in O2 during surgery. Ligation of the L5 and L6 nerves was produced by an incision through the left paraspinal muscles. The left L5 and L6 spinal nerves were isolated adjacent to the vertebral column and ligated tightly with 6-0 silk suture just distal to the dorsal root ganglion. The wound was closed in layers using 4-0 silk suture and wound clips. Testing began 7 days after surgery.
Assessment of tactile hypersensitivity. […] Baseline tactile sensitivity was assessed using a series of calibrated von Frey monofilaments (Stoelting; Wood Dale, Ill.) 0 to 3 days before surgery. […] The ability of a single dose of test compound to reverse established hypersensitivity was assessed using a time course procedure. […]
Results are presented as the 50% threshold values (50% threshold in g force) estimated by the Dixon non-parametric test. […] Significant main effects were analyzed further by subsequent least significant difference analysis. […]

[2] = biological target: human norepinephrine transporter (hNET) (Homo sapiens, UniProt P23975); assay: cell-based; conditions: hNET function uptake (EC50 in nm), MDCK-Net6 cells, [3H]NE uptake
Procedure: Test compounds were prepared in DMSO (10 mM) and diluted in assay buffer according to test range (1 to 10,000 nM). Twenty-five microliters of assay buffer (maximum NE uptake) or test compound were added directly to triplicate wells containing cells in 200 μl of assay buffer. […] To initiate the NE uptake, [^3H]NE diluted in assay buffer (120 nM final assay concentration) was delivered in 25 μl aliquots to each well and the plates were incubated for 5 minutes (37° C.).

[3] = biological target: T1, human serotonin transporter (hSERT) (Homo sapiens, UniProt P31645); assay: Serotonin (5-HT) uptake assay in JAR cells (hSERT function uptake); assay type: cell-based; conditions: [3H]5-HT uptake
T1 construct: The methods for 5-HT functional reuptake using the JAR cell line were modified using a previous literature report; host or cells: JAR (human placental choriocarcinoma), staurosporine-stimulated
Procedure: The methods for 5-HT functional reuptake using the JAR cell line were modified using a previous literature report. […] On day 2, cells were stimulated with staurosporine (40 nM) to increase the expression of the 5-HT transporter. On day 3, cells were removed from the cell incubator two hours prior to assay and maintained at room temperature to equilibrate the growth medium to ambient oxygen concentration. […] Twenty-five microliters of assay buffer (maximum 5-HT uptake) or test compound were added directly to triplicate wells containing cells in 200 μl of assay buffer. The cells were incubated with the compound for 10 minutes (37° C.). […] The cells were incubated with the reaction mixture for 5 minutes at 37° C. The 5-HT uptake reaction was terminated by decanting the assay buffer.

hNET = hNET (Homo sapiens, UniProt P23975); assay: hNET binding
hSERT = hSERT (Homo sapiens, UniProt P31645); assay: hSERT binding
[4] = tested on: OVX rats, tail skin temperature (TST); assay: Telemetry rat model of ovariectomy-induced thermoregulatory dysfunction (tail skin temperature); assay type: in vivo; conditions: 30 mg/kg sc; for Duration: duration of effect on TST; for Onset: onset of action on TST
Description: This model has been modified from a previously reported protocol describing estrogen regulation of diurnal tail skin temperature (TST) patterns (Berendsen, et al., European Journal of Pharmacology, 2001, 419(1): 47-54). […] A temperature and physical activity transmitter (PhysioTel TA10TA-F40, Data Sciences International) was implanted subcutaneously in the dorsal scapular region and the tip of the temperature probe was tunneled subcutaneously 2.5 cm beyond the base of the tail. After a 7-day recovery period, TST readings were continuously recorded for the remainder of the study. Tail skin temperature readings were collected from each animal every 5 minutes with values obtained over a 10 second sampling period. The day before test day, an average baseline TST value was calculated for each animal by averaging temperature readings recorded during the 12 hour active (dark) phase. In these studies, animals were dosed approximately 40 minutes prior to the onset of dark cycle.
Statistical analysis: Evaluation of a compound's ability to restore normal lowering of TST in the telemetry model was analyzed using hourly TST values calculated for each animal by averaging the 12 temperature readings obtained every 5 minutes over that recording time. To analyze ΔTST in the telemetry model, a two factors repeated measure ANOVA was performed. The model used for analysis was ΔTST=GRP (group)+HR (hours)+GRP*HR+BASELINE. Thus, the reported least squares means are the expected mean values as if both groups had the same baseline value. Post-hoc tests of hourly GRP*HR samples are t-tests of the difference between groups for each hour. To be conservative, a result was not considered significant unless the p-value was <0.025. All analyses were performed using SAS PROC MIXED (SAS, Carey, N.C.).
Rats were injected subcutaneously with vehicle (2%Tween/0.5% methylcellulose) or 30 mg/kg, sc test compound dissolved in 2%Tween/0.5% methylcellulose. The effect of test compound is measured by evaluating the following parameters in this model: onset of action, duration of effect on TST, maximal change in TST and mean change in TST over the duration of the compound effect.

[5] = tested on: OVX rats, tail skin temperature (TST); assay: as above; assay type: in vivo; conditions: 30 mg/kg, sc; p<0.05 compared to vehicle control

Chain of human norepinephrine transporter (hNET) (P23975 whole entry): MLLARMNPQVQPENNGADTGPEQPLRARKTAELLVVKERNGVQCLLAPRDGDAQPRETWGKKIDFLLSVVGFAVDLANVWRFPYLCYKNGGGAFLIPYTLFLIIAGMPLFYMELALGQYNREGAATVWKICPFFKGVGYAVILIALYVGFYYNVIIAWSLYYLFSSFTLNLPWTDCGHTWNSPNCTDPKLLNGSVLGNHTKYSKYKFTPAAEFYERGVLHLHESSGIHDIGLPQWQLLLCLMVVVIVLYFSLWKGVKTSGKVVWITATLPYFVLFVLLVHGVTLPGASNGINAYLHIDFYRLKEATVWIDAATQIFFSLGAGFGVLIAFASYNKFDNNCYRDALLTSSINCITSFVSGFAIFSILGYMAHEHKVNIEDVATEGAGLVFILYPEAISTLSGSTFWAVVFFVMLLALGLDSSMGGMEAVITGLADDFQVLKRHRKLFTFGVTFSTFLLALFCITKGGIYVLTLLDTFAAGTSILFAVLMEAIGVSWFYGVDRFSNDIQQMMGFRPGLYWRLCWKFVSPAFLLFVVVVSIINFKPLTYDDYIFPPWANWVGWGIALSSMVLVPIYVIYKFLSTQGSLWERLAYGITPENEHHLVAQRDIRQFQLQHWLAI
Chain of hNET (P23975 whole entry): as above
T1 sequence (P31645 whole entry): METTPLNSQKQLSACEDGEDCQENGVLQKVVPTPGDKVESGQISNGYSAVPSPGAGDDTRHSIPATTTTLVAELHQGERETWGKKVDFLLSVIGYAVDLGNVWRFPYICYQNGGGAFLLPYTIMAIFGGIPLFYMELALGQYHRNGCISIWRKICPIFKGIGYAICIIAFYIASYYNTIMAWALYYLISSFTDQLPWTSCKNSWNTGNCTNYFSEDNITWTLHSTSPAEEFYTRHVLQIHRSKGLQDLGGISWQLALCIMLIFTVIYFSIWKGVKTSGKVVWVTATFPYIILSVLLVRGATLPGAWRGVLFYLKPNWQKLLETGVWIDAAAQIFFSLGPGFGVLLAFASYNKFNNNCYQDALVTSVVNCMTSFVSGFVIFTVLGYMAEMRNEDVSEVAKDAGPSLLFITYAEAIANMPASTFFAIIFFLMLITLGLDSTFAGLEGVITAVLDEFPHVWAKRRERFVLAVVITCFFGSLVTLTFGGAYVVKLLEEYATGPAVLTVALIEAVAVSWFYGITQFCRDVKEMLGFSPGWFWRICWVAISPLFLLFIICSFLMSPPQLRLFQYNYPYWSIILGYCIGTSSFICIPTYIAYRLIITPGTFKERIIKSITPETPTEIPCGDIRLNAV
Chain of hSERT (P31645 whole entry): as above

## Clc1ccc(C23CNCC2C3)cc1Cl (racemic) [Racemic 1-(3,4-dichlorophenyl)-3-azabicyclo[3.1.0]hexane, 1-(3,4-dichlorophenyl)-3-azabicyclo[3.1.0]hexane]
[1]
  Reversal of tactile allodynia in the SNL neuropathic pain model: significantly reverses tactile allodynia

## Cc1ccc(C23CNCC2C3)cc1 (racemic) [Racemic 1-(4-methylphenyl)-3-azabicyclo[3.1.0]hexane, 1-(4-methylphenyl)-3-azabicyclo[3.1.0]hexane]
[2]
  EC50: 0.265 µM and 0.426 µM
[3]
  EC50: 0.736 µM
hNET
  hNET binding (% I @ 1 μM): 71.8 % I
hSERT
  hSERT binding (% I @ 1 μM): 42.8 % I
[4]
  Activity Index: -10.6 h
  Duration: 3.5 h
  Onset: 0.5 h
[5]
  Restoration of normal TST in OVX-induced thermoregulatory dysfunction telemetry model: restores normal TST

## Cc1ccc(C23CNCC2C3)cc1 (single isomer, unassigned; (+)) [(+)-1-(4-methylphenyl)-3-azabicyclo[3.1.0]hexane]
[4]
  Activity Index: -2.99 h
  Duration: 3.5 h
  Onset: 0.5 h
[5]
  Restoration of normal TST in OVX-induced thermoregulatory dysfunction telemetry model: restores normal TST
